Laboratory results: patent publication US4885239A, “Rapid differentiation of bacteria using polyether antibiotics” (Eastman Kodak Company, priority 1986, dated 1989)

Columns and labels:
K. pneumoniae = assay: dye formation from RIND VII in presence of calimycin, K. pneumoniae; format: cell-based, Klebsiella pneumoniae (ATCC 13883); design: key: 0: no dye formation; +/-: faint dye formation; 1+: light dye formation; 2+: moderate dye formation; 3+: strong dye formation; 4+: very strong dye formation; details: calimycin 10^-3 molar, calcium chloride
Description: (§1) gram-negative bacteria Enterobacter cloacae (ATCC 23355), Escherichia coli (ATCC 25922), Proteus vulgaris (ATCC 13315), Klebsiella pneumoniae (ATCC 13883) and Pseudomonas aeruginosa (ATCC 27853), and gram-positive bacteria Staphylococcus aureus (ATCC 25923) and Streptococcus pyogenes (ATCC 19615), and brain heart infusion (BHI) broth from Difco Laboratories (Detroit, Mich.),
Bacterial suspensions were prepared by growing the cells in BHI to stationary phase overnight at 37° C. P. aeruginosa was grown with agitation. […]
(§2) TERGITOL 7 anionic surfactant was used to differentiate viable bacteria according to the prior art method. […] The amount of dye formed was then determined visually and graded as follows: 0 indicates no dye formation, +/- indicates faint dye formation, 1+ indicates light dye formation, 2+ indicates moderate dye formation, 3+ indicates strong dye formation, and 4+ indicates very strong dye formation.
(§3) Calimycin, a polyether antibiotic, was similarly used with RIND VII in the differentiation of bacteria. Assays were performed as described above, except that 25 μl of 1 molar calcium chloride solution was added to each test solution and the P. aeruginosa response was measured in the presence of 10% yeast extract as the carbon source instead of glucose. […]

S. faecalis = assay: dye formation from RIND VII in presence of calimycin, S. faecalis; format: cell-based, Streptococcus faecalis (clinical urine isolate); design: key: 0: no dye formation; +/-: faint dye formation; 1+: light dye formation; 2+: moderate dye formation; 3+: strong dye formation; 4+: very strong dye formation; details: calimycin 10^-3 molar, calcium chloride
Description: Streptococcus faecalis was isolated from a clinical urine specimen obtained from a local hospital,
(§4) Bacterial suspensions were prepared by growing the cells in BHI to stationary phase overnight at 37° C. P. aeruginosa was grown with agitation. About 40 ml of overnight cultures were centrifuged, decanted and washed once with 0.05 molar potassium phosphate buffer or 0.05 molar N-2-hydroxyethylpiperazine-N'-2-ethanesulfonic acid (HEPES) buffer, pH 7.8, and resuspended in buffer.
A dispersion containing a RIND compound was prepared by dissolving RIND VII from Table II above in N,N-dimethylformamide (DMF) at 16 mg compound per ml of solvent. […]
as §2, §3

S. aureus (gram +) [1] = assay: change in relative fluorescence with water-compatible RIND XXXV (Example 4), S. aureus; format: cell-based, Staphylococcus aureus (ATCC 25923); details: 37° C., without antibiotic 2667
Description: as §1, §4
A dispersion containing a RIND compound was prepared by dissolving RIND VII from Table II above in N,N-dimethylformamide (DMF) at 16 mg compound per ml of solvent. An aliquot (250 μl) of the resulting solution was added to 500 μl of TRITON X-100 surfactant. This mixture was then added dropwise with stirring to 25 ml of 0.05 molar HEPES buffer. A solution containing a water-compatible RIND compound XXXV was prepared by dissolving the compound (16 mg/ml) in N,N-dimethylformamide which had been acidified with a 0.1% sulfuric acid solution.
A solution was prepared from the following components: 100 μl RIND XXXV solution (16 mg/ml acidified N,N-dimethylformamide), 200 μl glucose solution (10% in water), 200 μl trimethyl-1,4-benzoquinone ETA solution (1.5 mg/ml methanol) and 10 ml HEPES buffer.
Test solutions were prepared from the following reagents: 50 μl HEPES buffer, 50 μl polyether antibiotic A23187 (free acid, 0.01 molar in methanol), 10 μl calcium chloride solution (1 molar) (serial dilutions of buffer and antibiotic were performed to obtain various antibiotic concentrations), 50 μl of the appropriate cell suspensions (E. coli, about 10^8 cells/ml and S. aureus, about 10^8 cells/ml) and 200 μl of the RIND solution. Control solutions were prepared as described in Examples 2 and 3.
Relative fluorescence was measured using a standard spectrophotometer modified to read at excitation of 540 nm and emission of 620 nm. The change (Δ) in relative fluorescence was determined after 30 minutes at 37° C. for several concentration levels of antibiotic.

E. coli (gram -) = assay: change in optical density with tetrazolium salt MTT (Example 5), E. coli; format: cell-based, Escherichia coli (ATCC 25922); details: 540 nm, 37° C., without antibiotic 0.643
Description: as §1, §4
The reducible compound solution was prepared with 3-(4,5-dimethyl-2-thiazolyl)-2,5-diphenyl-2H-tetrazolium bromide (MTT) (200 μl of 5 mg/ml methanol), 200 μl glucose solution (10% in water), 200 μl trimethyl-1,4-benzoquinone ETA (1.5 mg/ml methanol) and 12 ml of HEPES buffer (0.05 molar, pH 7.8).
Test solutions were prepared with the following: 50 μl HEPES buffer, 50 μl polyether antibiotic A23187 (free acid, 0.01 molar in methanol), 10 μl calcium chloride (1 molar) (serial dilutions of buffer and antibiotic were performed to obtain various antibiotic concentrations), 50 μl of the appropriate cell suspension, E. coli (about 10^8 cells/ml) or S. aureus (about 10^8 cells/ml), and 200 μl of the MTT solution. Control solutions were prepared as described in previous Examples.
Optical density measurements were obtained at 540 nm using a standard spectrophotometer and the change in optical density (ΔOD) was determined after 30 minutes at 37° C. The resulting data are shown in Table VII below for several concentrations of antibiotic. It is clear from the data that the composition of this example was useful for differentiating bacteria.

S. aureus (gram +) [2] = assay: inhibition of the reduction of RIND XXXV in dry analytical element (Example 6), S. aureus; format: cell-based, Staphylococcus aureus (ATCC 25923); details: calcium chloride, 30 minutes, 37° C.

CNc1ccc2oc(C[C@H]3O[C@@]4(CC[C@H]3C)O[C@H]([C@H](C)C(=O)c3ccc[nH]3)[C@H](C)C[C@H]4C)nc2c1C(=O)O [calimycin, Calimycin]
dye formation (K. pneumoniae; 15 Minutes): 4+
dye formation (K. pneumoniae; 30 Minutes): 4+
dye formation (S. faecalis; 15 Minutes): +/-
dye formation (S. faecalis; 30 Minutes): +/-
Δ Relative Fluorescence after 30 Min. (S. aureus (gram +) [1]; antibiotic 1 × 10^-4 molar): 409
Δ Relative Fluorescence after 30 Min. (S. aureus (gram +) [1]; antibiotic 2 × 10^-4 molar): 362
Δ Relative Fluorescence after 30 Min. (S. aureus (gram +) [1]; antibiotic 4 × 10^-4 molar): 290
Δ Relative Fluorescence after 30 Min. (S. aureus (gram +) [1]; antibiotic 8 × 10^-4 molar): 345
Δ OD after 30 Min. (E. coli (gram -); antibiotic 1 × 10^-4 molar): 0.503
Δ OD after 30 Min. (E. coli (gram -); antibiotic 2 × 10^-4 molar): 0.529
Δ OD after 30 Min. (E. coli (gram -); antibiotic 4 × 10^-4 molar): 0.512
Δ OD after 30 Min. (E. coli (gram -); antibiotic 8 × 10^-4 molar): 0.413
Corrected Percent Inhibition (S. aureus (gram +) [2]): 70%
